Results: patent US20240300945A1, “CLY SERIES COMPOUND, PREPARATION METHOD THEREFOR AND USE THEREOF IN PREPARATION OF DRUGS” (NANJING WELLBEST PHARMACEUTICAL CO., LTD, priority 2021, published 2024)

How the values were obtained:
[1] = system: chloasma model of guinea pig; experiment: Chloasma model of guinea pig: tyrosine, MDA content and SOD activity of skin tissue; format: in vivo; conditions: 0.25% cream on the skin once a day, 30 days
From the text: 1.1.4 Preparation method of treatment cream: The excipient matrix components include methyl silicone oil (15%), stearic acid (6%), white vaseline (5%), liquid paraffin (5%), octadecanol (5%), glycerin (20%), alkyl aryl polyglycol ether (1%), fatty alcohol polyoxyethylene ether (1%), […] (1%), ethyl paraben (0.1%), distilled water (about 31-55%), and are mixed with appropriate amount of CLY series compounds to form 0.25% mixed emulsion. The cream matrix used in this embodiment refers to the matrix components after the active ingredients are removed from the cream.
According to the body weight, they were randomly divided into the model control group (applied cream matrix), blank control group (applied cream matrix), CLY-1 treatment group (applied 0.25% CLY-1 cream on the skin), CLY-2 treatment group (0.25% CLY-2 cream on the skin), CLY-3 treatment group (0.25% CLY-3 cream on the skin), CLY-4 treatment group (0.25% CLY-4 cream on the skin), CLY-5 treatment group (0.25% CLY-5 cream on the skin) CLY-8 treatment group (0.25% CLY-8 cream on the skin), CLY-11 treatment group (0.25% CLY-11 cream on the skin), CLY-19 treatment group (0.25% CLY-19 cream on the skin), CLY-36 treatment group (0.25% CLY-36 cream on the skin), CLY-39 treatment group (0.25% CLY-39 cream on the skin), positive treatment group (0.25% arbutin cream on the skin), 6 in each group. In addition to the blank control group, all guinea pigs in the other groups were injected with 20 mg/ml progesterone injection (7.5 mg/kg) into the muscle at the root of the hind leg, once a day, for 30 consecutive days to establish the chloasma model. […] After modeling, the guinea pigs in the model control group, blank control group, each CLY series treatment group, and positive treatment group were treated with corresponding cream on the back for intervention, once a day, for 30 consecutive days.
Took one piece of skin tissue from each guinea pig, separately. Washed it with precooled normal saline, removed subcutaneous fat and other connective tissue, and then wiped it dry. Each piece of skin tissue was cut to 0.5 g. Then put it into five small tubes containing 2.0 ml of precooled normal saline. The high-speed dispersion machine homogenizes at a speed of […], lasted for 10 seconds, repeated once, centrifuged at a speed of 3500 r/m for 15 minutes, and took the supernatant. Tyrosine was determined by HPLC, MDA was determined by the thiobarbituric acid method, SOD was determined by the xanthine oxidase method, and tyrosine, MDA content, and SOD activity were determined according to the instructions of the kit.
SPSS16.0 software was used for statistics. The measurement data were expressed by mean±standard deviation (x±s). The comparison between multiple groups was performed by one-way ANOVA, and the comparison between groups was performed by t-test. P<0.05 was statistically significant.

[2] = system: skin hair follicles and sebaceous glands of mice; experiment: Mouse hair loss model: histopathological grading of skin hair follicles and sebaceous glands; format: in vivo, C57BL/6 mice; conditions: external 2% tincture, 60 days, 6 mice per group; for number of mice with hair follicle and sebaceous gland grade +++: grade +++ (most severe); for number of mice with hair follicle and sebaceous gland grade ±: grade ± (lesions limited); for number of mice with hair follicle and sebaceous gland grade −: grade − (normal structure)
From the text: The experimental mice were divided into the negative control group (external use of 60% ethanol), model group (external use of 60% ethanol), positive control group (external use of 2% minoxidil tincture), CLY-1 external treatment group (external use of 2% CLY-1 tincture), CLY-2 external treatment group (external use of 2% CLY-2 tincture), CLY-3 external treatment group (external use of 2% CLY-3 tincture), CLY-4 external treatment group (external use of 2% CLY-4 tincture), CLY-8 external treatment group (external use of 2% CLY-8 tincture) CLY-11 external treatment group (2% CLY-11 tincture), CLY-19 external treatment group (2% CLY-19 tincture), CLY-36 external treatment group (2% CLY-36 tincture), and CLY-39 external treatment group (2% CLY-39 tincture). There were 6 animals in each group, half male and half female. An area of 4 cm×5 cm from the back of experimental mice with hair removed was selected, and the hair removal area was painted yellow with 3% picric acid solution to determine the observation area of the hair removal experiment. In addition to the negative control group, mice in other groups were injected subcutaneously with testosterone propionate injection [8 ml/(kg·d)] at the back of the neck, once a day, for 60 consecutive days, to establish the model of androgenic alopecia (AGA). At the same time of modeling, the rats in the corresponding drug group were smeared with drugs on the observation area of the back at the rate of 1 ml/(piece·time), twice a day, with an interval of 2 hours. The normal control group and the model control group were smeared with the excipient (60% ethanol solution), 1 ml/(one time), twice a day, for 60 consecutive days.
10 hairs were extracted from the observation area on the back of each mouse every 15 days after administration, and the hair length was measured with a vernier caliper. After 60 days of administration, the skin of the experimental observation area was taken for routine tissue dehydration, paraffin embedding, HE staining, and light microscopy to observe the histopathological changes of mouse skin hair follicles and sebaceous glands. Semi-quantitative analysis was performed for each group. The grading criteria are as follows: the normal structure of dermal tissue cells, subcutaneous hair follicles, and sebaceous glands is marked as […]: no hyperplasia of dermal tissue is found, the lesions of hair follicles and sebaceous glands are limited, and no inflammation is found under the skin is marked as “+”: no obvious hyperplasia of dermal tissue is found, and the follicles are obviously cystic. No obvious hyperplasia of sebaceous glands is found, and no inflammation is found under the skin is marked as “+”: the dermal tissue has segmental hyperplasia, which is not obvious, A small number of hair follicles have cystic changes, and the sebaceous glands have mild hyperplasia and hypertrophy. There is no obvious inflammation under the skin, which is marked as “++”: the dermal tissue cells of the skin have different degrees of segmental hyperplasia, and some hair follicles have cystic changes, showing uneven size of hair follicles, and no cells around. The sebaceous glands have hyperplasia, and the nuclei in the proliferative glands are few. A few subcutaneous mild inflammatory hyperplasia is marked as “+++”.

Compound	MDA [1]	SOD [1]	tyrosine [1]	number of mice with hair follicle and sebaceous gland grade +++ [2]	number of mice with hair follicle and sebaceous gland grade ++ [2]	number of mice with hair follicle and sebaceous gland grade + [2]	number of mice with hair follicle and sebaceous gland grade ± [2]	number of mice with hair follicle and sebaceous gland grade − [2]
O=C(c1ccc(-n2nnc3cccnc32)cc1)N(c1ncccc1Cl)C1CCCC(O)C1 (centres unmarked) [CLY-4]	11.62 ± 1.15 nmol/mL	95.12 ± 8.65 NU/ml	0.53 ± 0.06 µg	0	2	2	2	0
CCN1CCC[C@@H](N(C(=O)c2ccc(-n3nnc4cccnc43)cc2)c2ncccc2Cl)C1 [CLY-2, (R)-4-(3H-[1,2,3]triazolo[4,5-b]pyridin-3-yl)-N-(3-chloropyridin-2-yl)-N-(1-ethylpiperidin-3-yl)benzamide]	10.86 ± 1.19 nmol/mL	105.23 ± 9.82 NU/ml	0.43 ± 0.06 µg	0	0	2	4	0
CN1CCC[C@@H](N(C(=O)c2ccc(-n3nnc4cccnc43)cc2)c2ncccc2Cl)C1 [CLY-1, (R)-4-(3H-[1,2,3]triazolo[4,5-b]pyridin-3-yl)-N-(3-chloropyridin-2-yl)-N-(1-methylpiperidin-3-yl)benzamide]	11.32 ± 1.15 nmol/mL	103.65 ± 9.63 NU/ml	0.45 ± 0.07 µg	0	1	2	3	0
Nc1cc(N2CCCCC2)nc(N)[n+]1[O-] [Positive control group, minoxidil, reference compound]	–	–	–	0	3	1	2	0
O=C(c1ccc(-c2ccccc2Cl)cc1)N(c1ncccc1Cl)[C@@H]1CCCNC1 [CLY-36]	11.83 ± 1.27 nmol/mL	93.42 ± 9.03 NU/ml	0.58 ± 0.08 µg	0	2	1	3	0
CNC1CCCC(N(C(=O)c2ccc(-n3nnc4cccnc43)cc2)c2ncccc2Cl)C1 (centres unmarked) [CLY-3]	11.57 ± 1.18 nmol/mL	97.45 ± 9.23 NU/ml	0.51 ± 0.07 µg	0	2	1	3	0
Nc1ccccc1-c1ccc(C(=O)N(c2ncccc2Cl)[C@@H]2CCCNC2)cc1 [CLY-39]	10.81 ± 1.23 nmol/mL	103.16 ± 9.65 NU/ml	0.46 ± 0.05 µg	0	1	2	3	0
COC1CCCC(N(C(=O)c2ccc(-n3nnc4cccnc43)cc2)c2ncccc2Cl)C1 (centres unmarked) [CLY-5]	10.65 ± 1.14 nmol/mL	105.89 ± 9.86 NU/ml	0.43 ± 0.05 µg	–	–	–	–	–
O=C(c1ccc(-c2ccccc2-c2nnn[nH]2)cc1)N(c1ncccc1Cl)[C@@H]1CCCNC1 [CLY-19]	11.75 ± 1.26 nmol/mL	96.53 ± 9.21 NU/ml	0.56 ± 0.07 µg	0	1	2	3	0
O=C(c1ccc(-n2nnc3cccnc32)cc1)N(c1ncccc1Cl)[C@@H]1CCNC1 [CLY-8, (R)-4-(3H-[1,2,3]triazolo[4,5-b]pyridin-3-yl)-N-(3-chloropyridin-2-yl)-N-(pyrrolidin-3-yl)benzamide]	10.59 ± 1.12 nmol/mL	105.68 ± 9.75 NU/ml	0.43 ± 0.03 µg	0	0	2	4	0
NC1CCCC(N(C(=O)c2ccc(-n3nnc4cccnc43)cc2)c2ncccc2Cl)C1 (centres unmarked) [CLY-11]	11.62 ± 1.21 nmol/mL	95.13 ± 9.16 NU/ml	0.54 ± 0.06 µg	0	2	1	3	0
